Laboratory results: patent US20260285880A1, “SUBSTITUTED DIHYDROTHIENOPYRIMIDINE COMPOUND, PREPARATION METHOD THEREFOR, AND USE THEREOF” (SHANGHAI YIDI BIOTECHNOLOGY CO., LTD., priority 2023, published 2026)

Experiments:
Flpin-293-PDE4B2 cells = Flpin-293-PDE4B2 cells (Homo sapiens, UniProt Q07343); assay: cell-based; settings: for inhibition at 0.001 µM: read-out: Cell Inhibition % @1 nM, 1 nM, Flpin-293-PDE4B2 cells; for inhibition at 0.01 µM: read-out: Cell Inhibition % @10 nM, 10 nM, Flpin-293-PDE4B2 cells; for inhibition at 0.1 µM: read-out: Cell Inhibition % @100 nM, 100 nM, Flpin-293-PDE4B2 cells
PDE4B2 = PDE4B2 (Homo sapiens, UniProt Q07343); settings: for IC50: read-out: PDE4B2 IC50, enzyme assay
Chain of PDE4B2 (Q07343 1-564 isoform Q07343-2, species assumed): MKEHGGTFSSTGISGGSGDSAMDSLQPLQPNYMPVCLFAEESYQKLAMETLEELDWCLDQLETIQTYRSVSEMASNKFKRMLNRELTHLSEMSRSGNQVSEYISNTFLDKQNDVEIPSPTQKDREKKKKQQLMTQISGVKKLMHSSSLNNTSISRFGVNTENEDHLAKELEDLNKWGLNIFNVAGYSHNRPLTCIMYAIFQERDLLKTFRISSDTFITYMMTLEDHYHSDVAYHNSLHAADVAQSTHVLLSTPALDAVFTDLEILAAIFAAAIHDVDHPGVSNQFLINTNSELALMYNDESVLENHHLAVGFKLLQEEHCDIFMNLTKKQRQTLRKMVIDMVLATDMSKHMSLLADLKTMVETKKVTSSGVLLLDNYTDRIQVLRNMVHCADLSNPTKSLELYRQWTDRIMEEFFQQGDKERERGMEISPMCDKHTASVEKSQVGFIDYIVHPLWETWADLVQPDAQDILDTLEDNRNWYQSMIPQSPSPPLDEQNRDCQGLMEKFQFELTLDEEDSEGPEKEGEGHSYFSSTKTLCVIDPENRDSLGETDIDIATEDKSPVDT

Chain of Flpin-293-PDE4B2 cells (Q07343 1-564 isoform Q07343-2): as the sequence (Q07343 1-564 isoform Q07343-2, species assumed) above

Compound | inhibition at 0.001 µM (Flpin-293-PDE4B2 cells) [%] | inhibition at 0.01 µM (Flpin-293-PDE4B2 cells) [%] | inhibition at 0.1 µM (Flpin-293-PDE4B2 cells) [%] | IC50 (PDE4B2) [nM] | PDE4B2 Enzyme Inhibition % @10 nM (PDE4B2; 10 nM) [%] | PDE4B2 Enzyme Inhibition % @100 nM (PDE4B2; 100 nM) [%]
C[C@H]1CN(c2nc3c(c(NC4(CO)CCC4)n2)[S+]([O-])CC3)Cc2ccc(Cl)cc21 (stereo partly drawn) [Compound 120] | 4.1 | 7.4 | 23.1 | 0.98 |  | 
(R)-4-((1-(hydroxymethyl)cyclobutyl)amino)-2-(6-(1-methyl-2,5-dihydro-1H-pyrrol-3-yl)-3,4-dihydroisoquinolin-2(1H)-yl)-6,7-dihydrothieno[3,2-d]pyrimidine 5-oxide [Compound 169] |  |  |  |  | 20.43 | 78.77
COc1ccc2c(c1)OC[C@H]1CN(c3nc4c(c(NC5(CO)CCC5)n3)[S+]([O-])CC4)CC[C@H]21 (stereo partly drawn) [Compound 110] | 19 | 76.1 | 100 |  |  | 
[O-][S+]1CCc2nc(N3CC[C@@H]4c5ccc(Br)cc5OC[C@H]4C3)nc(NC3(CO)CCC3)c21 (stereo partly drawn) [Compound 115] | 7.72 | 39.7 | 97.7 |  |  | 
[O-][S+]1CCc2nc(N3CC[C@@H]4c5ccccc5OC[C@H]4C3)nc(NC3(CO)CCC3)c21 (stereo partly drawn) [Compound 83] | 5.79 | 47.8 | 97.3 |  |  | 
[O-][S+]1CCc2nc(N3Cc4ccc(Br)cc4C3)nc(NC3(CO)CCC3)c21 (stereo not drawn) [Compound 59] |  | 42.6 | 85.8 |  |  | 
Cn1nc(Cl)c2c3c(cnc21)CN(c1nc2c(c(NC4(CO)CCC4)n1)[S+]([O-])CC2)CC3 (stereo not drawn) [Compound 105] | 7.53 | 42.5 | 93.5 |  |  | 
[O-][S+]1CCc2nc(N3CCc4cc(I)ccc4C3)nc(NC3(CO)CCC3)c21 (stereo not drawn) [Compound 67] | 14.2 | 47.4 | 96.4 |  |  | 
[O-][S+]1CCc2nc(N3CC[C@@H]4c5ccc(C(F)(F)F)cc5OC[C@H]4C3)nc(NC3(CO)CCC3)c21 (stereo partly drawn) [Compound 111] | 8.07 | 22.2 | 81.1 |  |  | 
[O-][n+]1cc2c(c3ccc(Cl)cc31)CCN(c1nc3c(c(NC4(CO)CCC4)n1)[S+]([O-])CC3)C2 (stereo not drawn) [Compound 106] | 0.41 | 21.2 | 67.5 |  |  | 
Cn1c2c(c3ccc(Cl)cc3c1=O)CCN(c1nc3c(c(NC4(CO)CCC4)n1)[S+]([O-])CC3)C2 (stereo not drawn) [Compound 98] | -1.71 | 46.7 | 95.8 |  |  | 
CS(=O)(=O)c1ccc2c(c1)CCN(c1nc3c(c(NC4(CO)CCC4)n1)[S+]([O-])CC3)C2 (stereo not drawn) [Compound 93] | 14 | 61 | 94.2 |  |  | 
[O-][S+]1CCc2nc(N3CCc4cc(-n5ccnc5)ccc4C3)nc(NC3(CO)CCC3)c21 (stereo not drawn) [Compound 90] | 15 | 65.8 | 97.2 |  |  | 
[O-][S+]1CCc2nc(N3CCc4cc(Cl)c(F)cc4C3)nc(NC3(CO)CCC3)c21 (stereo not drawn) [Compound 96] | -2.7 | 15.7 | 84.8 |  |  | 
[O-][S+]1CCc2nc(N3CCc4cc(F)c(F)cc4C3)nc(NC3(CO)CCC3)c21 (stereo not drawn) [Compound 95] | -4.2 | 6.8 | 66.7 |  |  | 
NC(=O)Nc1ccc(Nc2nc(N3CCc4cc(Cl)ccc4C3)nc3c2[S+]([O-])CC3)cc1 (stereo not drawn) [Compound 137] | 4.94 | 21.8 | 83.8 |  |  | 
[O-][S+]1CCc2nc(N3CCc4c(nn5cc(F)ccc45)C3)nc(NC3(CO)CCC3)c21 (stereo not drawn) [Compound 32] | 23.5 | 74.2 | 97.7 |  |  | 
Nc1nc2cc(Cl)ccc2c2c1CN(c1nc3c(c(NC4(CO)CCC4)n1)[S+]([O-])CC3)CC2 (stereo not drawn) [Compound 102] | -0.08 | 35.9 | 95.5 |  |  | 
[O-][S+]1CCc2nc(N3CCc4ccc(Cl)cc4C3)nc(NC3(CO)CCC3)c21 (stereo not drawn) [Compound 20] |  | 14.2 | 69.9 |  |  | 

Further lines, results first:

inhibition at 0.001 µM (Flpin-293-PDE4B2 cells) [%] | inhibition at 0.01 µM (Flpin-293-PDE4B2 cells) [%] | inhibition at 0.1 µM (Flpin-293-PDE4B2 cells) [%] | IC50 (PDE4B2) [nM] | PDE4B2 Enzyme Inhibition % @10 nM (PDE4B2; 10 nM) [%] | PDE4B2 Enzyme Inhibition % @100 nM (PDE4B2; 100 nM) [%] | Compound
12 | 46.8 | 76.1 | 0.692 |  |  | CN1C[C@H]2C[C@@H]1CN2c1ccc2c(c1)CCN(c1nc3c(c(NC4(CO)CCC4)n1)[S+]([O-])CC3)C2 (stereo partly drawn) [Compound 155]
12.8 | 78.5 | 99.9 | 0.413 |  |  | [O-][S+]1CCc2nc(N3CCc4cc(N5CCCC5)ncc4C3)nc(NC3(CO)CCC3)c21 (stereo not drawn) [Compound 183]
11.3 | 71.5 | 99.7 |  |  |  | C[C@H]1c2ccc(N3CCCC3)cc2CCN1c1nc2c(c(NC3(CO)CCCC3)n1)[S+]([O-])CC2 (stereo partly drawn) [Compound 221]
12.5 | 50.1 | 98.4 |  |  |  | C[C@H]1c2ccc(N3CCCC3)cc2CCN1c1nc2c(c(NC3(CO)CCOC3)n1)[S+]([O-])CC2 (stereo partly drawn) [Compound 211]
6.98 | 32.6 | 66.3 |  |  |  | C[C@H]1c2ccc(N3CCCC3)cc2CCN1c1nc2c(c(Nc3ccnn3CCO)n1)[S+]([O-])CC2 (stereo partly drawn) [Compound 219]
30.8 | 94.4 | 100 |  |  |  | C[C@H]1c2ccc(N3CCCC3)cc2CCN1c1nc2c(c(Nc3cnn(C)c3)n1)[S+]([O-])CC2 (stereo partly drawn) [Compound 207]
4.95 | 27.9 | 89.6 |  |  |  | N#CCc1ccc(Nc2nc(N3CCc4cc(Cl)ccc4C3)nc3c2[S+]([O-])CC3)cc1 (stereo not drawn) [Compound 138]
6.23 | 20 | 61.1 |  |  |  | [O-][S+]1CCc2nc(N3CCc4cc(N5CC6(COC6)C5)ccc4C3)nc(NC3(CO)CCC3)c21 (stereo not drawn) [Compound 164]
13.8 | 73.4 | 100 |  |  |  | C[C@H]1c2ccc(N3CCCC3)cc2CCN1c1nc2c(c(Nc3cnn(CCC#N)c3)n1)[S+]([O-])CC2 (stereo partly drawn) [Compound 220]
26.9 | 89.7 | 100 |  |  |  | C[C@H]1c2ccc(N3CCCC3)cc2CCN1c1nc2c(c(NCc3cnn(C)c3)n1)[S+]([O-])CC2 (stereo partly drawn) [Compound 206]
1.8 | 15.1 | 64.1 |  |  |  | C[C@H]1c2ccc(N3CCCC3)cc2CCN1c1nc2c(c(Nc3cn(C)nn3)n1)[S+]([O-])CC2 (stereo partly drawn) [Compound 214]
16.2 | 78.6 | 102 |  |  |  | [O-][S+]1CCc2nc(N3CCc4cc(Cl)ccc4C3)nc(Nc3ccc(CCO)cc3)c21 (stereo not drawn) [Compound 139]
4.48 | 9.75 | 61.7 |  |  |  | C[C@H]1c2ccc(N3CCCC3)cc2CCN1c1nc2c(c(Nc3cnn(C4CN(C)C4)c3)n1)[S+]([O-])CC2 (stereo partly drawn) [Compound 209]
9.25 | 29.6 | 89 |  |  |  | C[C@H]1c2ccc(N3CCCC3)cc2CCN1c1nc2c(c(Nc3nnn(C)n3)n1)[S+]([O-])CC2 (stereo partly drawn) [Compound 213]
